In US20130289099A1, “ABCG1 GENE AS A MARKER AND A TARGET GENE FOR TREATING OBESITY” (UNIVERSITE PIERRE ET MARIE CURIE (PARIS 6), priority 2010, published 2013):
{P} = phosphate

Legend:
LPL [1] = assay: Secreted LPL activity in culture media of 3T3-L1 adipocytes; format: cell-based, mouse; conditions: ABCG1 KD 3T3-L1 adipocytes, p<0.05
Experimental: (§1) 3T3-L1 adipocytes. The 3T3-L1 preadipocytes (ATCC) were maintained in Dulbecco's modified Eagle medium (DMEM) supplemented with 10% calf serum and 2 mM glutamine. Differentiation of confluent preadipocytes was initiated with 250 nM insulin, 1250 nM dexamethasone and 250 μM 3-isobutyl-methyl-1-xanthine) in DMEM (4.5 g/L glucose) supplemented with 10% FBS. After 3 days, the culture medium was switched to DMEM (4.5 g/L glucose) supplemented with 10% FBS and 100 nM Insulin for 2 days. Then, 3T3-adipocytes were allowed to mature in DMEM (4.5 g/L glucose) containing 10% FBS, which was replaced every other day for 15 days.
(§2) Cell culture medium from either macrophage or adipocyte cultures was replaced by a serum-free medium containing 10 U/mL heparin (Choay) and the cells were subsequently incubated for 24 h at 37° C. Culture medium was then collected and stored at −80° C. until determination of LPL activity and cells were lysed overnight in 0.2 N NaOH. Cell protein was quantified using the BCA assay (Pierce). LPL activity was determined using a 50-μl aliquot of culture medium ( 1/10 of total volume), or plasma when indicated, according to the procedure previously described (Stengel et al., 1998). Results are expressed as units of LPL activity (1 U of LPL activity correspond to 1 nmol free fatty acid liberated/min/mg cell protein). […]

3T3-L1 preadipocytes = assay: Cellular triglyceride content during maturation of 3T3-L1 preadipocytes into adipocytes; format: cell-based, mouse; conditions: silencing in preadipocytes at D0; after 4 days of differentiation, p<0.05
Experimental: as §1
(§3) Quantification of total cellular triglyceride and cholesterol mass was performed as previously described (Milosavljevic et al., 2003).
(§4) Ten-day differentiated HMDM were grown in 24-well plates and transfected with 50 nM control siRNA (Dharmacon) or siRNA targeting human ABCG1 using lipofectamine RNAiMax (Invitrogen) according to the manufacturer's instructions. Transfection of 3T3-L1 preadipocytes and mature adipocytes with siRNA was achieved using the Nucleofector® technology (Lonza) according to the manufacturer's protocol. For each experiment, 2×10^6 cells and 100 pmol siRNA were diluted in 100 μl of V solution and processed with A-033 program.

ABCG1 = ABCG1 knockdown efficiency (mRNA) in 3T3-L1 adipocytes; format: cell-based, mouse; conditions: mature 3T3-L1 adipocytes, p<0.0005
Experimental: as §1, with “15 days. […]” for “15 days.”
(§5) Twenty-four hours following transfection with siRNA, Control and ABCG1 KD cells were washed twice with cold PBS and total RNA was extracted using a NucleoSpin RNA II kit (Macherey-Nagel) according to the manufacturer's instructions. Reverse transcription of RNA and real time quantitative PCR using a LightCycler LC480 (Roche) were performed as previously described (Larrede et al., 2009). Expression data were based on the crossing points calculated with the software for LightCycler data analysis and corrected for PCR efficiencies of the target and the reference gene. When indicated, data were expressed as a fold change in mRNA expression relative to control values.

[2] = tested on: human monocyte-derived macrophages (HMDM); assay: VLDL-induced cellular triglyceride and cholesterol accumulation in HMDM; format: cell-based; conditions: 50 μg/mL VLDL, 24 h
Experimental: as §3, §4

LPL [3] = assay: Secreted LPL activity in culture media of HMDM after heparin; format: cell-based, human; conditions: ABCG1 KD HMDM, after heparin treatment, p=0.02
Experimental: (§6) Human Macrophages. Human THP-1 monocytic cells (ATCC) and a THP-1 clone stably transfected with an shRNA targeting human ABCG1, in which ABCG1 expression is stably knocked down (ABCG1 SKD), were cultured and differentiated into macrophage-like cells as previously described (Larrede et al., 2009). Circulating human monocytes were isolated from the blood of individual healthy normolipidemic donors (Etablissement Français du Sang, EFS) on Ficoll gradients (Ficoll-Paque PLUS, GE Healthcare) and subsequently differentiated into human macrophages (HMDM) following the procedure previously reported (Larrede et al., 2009).
as §2

human ABCG1 = assay: siRNA silencing of ABCG1 in HMDM, Western blot of total ABCG1 protein; format: cell-based; conditions: HMDM transfected with 50 nM siRNA vs control siRNA
Experimental: as §6
Silencing of ABCG1 expression was performed by application of siRNA oligonucleotides (Dharmacon) targeted to the cDNA sequence of either the human ABCG1 gene (Genebank #AY048757):
Ten-day differentiated HMDM were grown in 24-well plates and transfected with 50 nM control siRNA (Dharmacon) or siRNA targeting human ABCG1 using lipofectamine RNAiMax (Invitrogen) according to the manufacturer's instructions. […]
Cell proteins were extracted using 200 μL M-PER reagent (Pierce) containing protease inhibitors and were subsequently separated on a 4-12% Bis-Tris gel (Invitrogen). […] ABCG1 was detected using rabbit anti-hABCG1 (NB400-132; Novus) at 1:500 and goat anti-rabbit/HRP (Dako) at 1:15000.

LPL [4] = assay: Flow cytometry of cell surface LPL in THP-1 macrophages; format: cell-based, human; conditions: ABCG1 KD THP-1 macrophages, p<0.05
Experimental: as §6
Human THP-1 macrophages were cultured in 12-well plates (2.106 cells/well) and incubated in serum-free media in the presence or in the absence of 10 U/mL heparin (Choay) for 24 h at 37° C. following siRNA transfection. Cells were then washed and harvested in cold PBS. After brief centrifugation (2000 rpm, […]) at 4° C., cells were pre-incubated with 100 μl of human Fc Blocker (BD Pharmingen; 1:400 in PBS/BSA 1%) for 10 min at 4° C., and incubated with a monoclonal mouse antibody directed against human LPL (abcam; 1:100) for a further 15 min at 4° C. […] Cells were analyzed on an FC 500 flow cytometer (Beckman Coulter) using Epics XL32 software.

[5] = tested on: SDC1, SDC2, VLDL-r, LRP, apoE, LDL-r; assay: Relative mRNA levels of proteoglycan core proteins, lipoprotein receptors and apoE in HMDM; format: cell-based, human
Experimental: as §4, §5

LPL mRNA = LPL mRNA levels by real-time quantitative PCR in HMDM; format: cell-based, human; conditions: ABCG1 KD HMDM, p<0.05
Experimental: as §4, §5

LPL [6] = assay: Confocal microscopy of LPL at the cell surface of HMDM; format: cell-based, human; conditions: ABCG1 KD HMDM vs control
Experimental: Cells were blocked for 60 minutes with 3% BSA in PBS and then incubated with an anti-hLPL antibody (Abcam; 1:300) overnight at 4° C. After washing, a biotinylated goat anti-mouse IgG secondary antibody (1:1000; BD Pharmingen) was added, followed by the addition of streptavidin-horseradish peroxidase. The signal was enhanced using the tyramide signal amplification (TSA) kit (PerkinElmer) according to the manufacturer's protocol; cells were counterstained for nuclei with DAPI (Invitrogen). Confocal microscopy was performed using a Right confocal microscope Olympus FV-1000 with a 60× objective.

Molecule: 5′-GCGAAGCUGUACCUGGAUU-UU / 5′-P-AAUCCAGGUACAGCUUCGC-UU-3′ (sense GCGAAGCUGUACCUGGAUUUU; antisense AAUCCAGGUACAGCUUCGCUU; siRNA; sense: RNA, backbone not given here; antisense: RNA, 5' {P}, backbone not given here) [siRNA targeting mouse Abcg1]
- LPL activity in media, change vs control cells (LPL [1]): −81%
- intracellular TG accumulation during adipocyte maturation, change vs control cells (3T3-L1 preadipocytes): −22%
- inhibition of ABCG1 (mRNA), change vs control (ABCG1): −77%

Molecule: CCCCCCCCCCC[C@@H](C[C@@H]1OC(=O)[C@H]1CCCCCC)OC(=O)[C@H](CC(C)C)NC=O [THL, Tetrahydrolipstatin, reference compound]
- TC accumulation induced by VLDL, change ([2]; control HMDM, 10 μM THL): −75%
- TG accumulation induced by VLDL, change ([2]; control HMDM, 10 μM THL): −43%

Molecule: 5′-UCAUUGGCCUGCUGUACUU-UU-3 / 5′-P-AAGUACAGCAGGCCAAUGA-UU-3′ (sense UCAUUGGCCUGCUGUACUUUU; antisense AAGUACAGCAGGCCAAUGAUU; siRNA; sense: RNA, backbone not given here; antisense: RNA, 5' {P}, backbone not given here) [siRNA specific for the human ABCG1 gene]
- VLDL-induced accumulation of cholesterol ([2]; ABCG1 KD HMDM): completely abolished
- VLDL-induced accumulation of TG, change vs control cells ([2]; ABCG1 KD HMDM, p<0.01): −38%
- secreted LPL activity, change vs control HMDM (LPL [3]): −52%
- ABCG1 expression (total ABCG1 protein, Western blot) (human ABCG1): almost complete abolition
- expression of LPL at the cell surface (flow cytometry), change vs control cells (LPL [4]): +48%
- relative mRNA levels of SDC1, SDC2, VLDL-r, LRP and apoE ([5]; ABCG1 KD human macrophages vs control): not altered
- LDL-receptor (LDL-r) expression, induction vs control cells ([5]; ABCG1 KD macrophages, p<0.01): 2 fold
- LPL expression (mRNA), change vs control HMDM (LPL mRNA): +28%
- abundance of LPL detected at the cell surface after heparin treatment (LPL [6]; 10 U/mL heparin): still remained higher than that in control HMDM
- LPL expression at the cell surface (confocal microscopy) (LPL [6]; without heparin): much more pronounced than in control cells
